Like-named read-outs stand apart in the source and are kept apart here.
Legend:
FLT3 = target: T1, FLT3 (Homo sapiens, UniProt P36888); assay: RBC HotSpot Kinase Assay, FLT3; type: biochemical; set-up: purchased Reaction Biology (RBC HotSpot); details: isolated kinase enzyme, 33P-ATP, P81 filter-binding
T1 sequence (P36888 27-993): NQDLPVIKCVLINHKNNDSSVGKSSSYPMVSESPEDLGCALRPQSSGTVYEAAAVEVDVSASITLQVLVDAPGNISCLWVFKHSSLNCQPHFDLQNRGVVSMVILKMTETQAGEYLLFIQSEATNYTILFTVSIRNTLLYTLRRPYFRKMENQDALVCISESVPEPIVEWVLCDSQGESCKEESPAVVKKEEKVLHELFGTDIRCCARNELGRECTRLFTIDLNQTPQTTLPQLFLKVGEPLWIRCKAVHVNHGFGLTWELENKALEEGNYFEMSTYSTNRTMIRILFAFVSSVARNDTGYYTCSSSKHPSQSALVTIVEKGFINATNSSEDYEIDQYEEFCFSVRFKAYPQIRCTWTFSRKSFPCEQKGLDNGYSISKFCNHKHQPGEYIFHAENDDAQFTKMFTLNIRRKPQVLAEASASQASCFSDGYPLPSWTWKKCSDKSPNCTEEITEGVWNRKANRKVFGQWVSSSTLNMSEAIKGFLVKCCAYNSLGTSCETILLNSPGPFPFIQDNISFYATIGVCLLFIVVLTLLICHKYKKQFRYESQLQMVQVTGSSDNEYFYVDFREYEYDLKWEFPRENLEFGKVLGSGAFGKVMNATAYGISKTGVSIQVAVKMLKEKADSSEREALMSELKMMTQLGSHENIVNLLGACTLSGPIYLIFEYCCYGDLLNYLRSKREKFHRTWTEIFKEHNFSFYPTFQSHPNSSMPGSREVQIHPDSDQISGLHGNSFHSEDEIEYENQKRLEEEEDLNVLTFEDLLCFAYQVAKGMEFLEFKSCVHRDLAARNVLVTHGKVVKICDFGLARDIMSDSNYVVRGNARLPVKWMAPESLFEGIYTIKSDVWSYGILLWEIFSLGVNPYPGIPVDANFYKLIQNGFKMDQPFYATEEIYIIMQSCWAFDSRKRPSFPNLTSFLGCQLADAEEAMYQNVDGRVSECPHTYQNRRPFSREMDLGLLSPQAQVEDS
Excerpt: (§1) This assay uses the isolated kinase enzyme. […] Unlike kinase binding assays that measure competition for ATP, the HotSpot Kinase Assay is a functional assay that measures catalytic activity; as such it measures relative functional potency regardless of the mechanism of enzyme inhibition. This assay uses the form of the various enzymes that are easiest to express, which may not necessarily be the form of the enzyme that exist in the cell. (Sometimes the carboxy terminus has been truncated to aid in expression, or, if it is a receptor kinase, the enzyme itself is isolated from the other parts of the receptor that are involved in regulating kinase activity.)
(§2) The reagent used was as follows: Base Reaction buffer; 20 mM Hepes (pH 7.5), 10 mM MgCl2, 1 mM EGTA, 0.01% Brij35, 0.02 mg/ml BSA, 0.1 mM Na3VO4, 2 mM DTT, 1% DMSO. Required cofactors were added individually to each kinase reaction.

MOLM14 D835Y cells = assay: MOLM14 D835Y cell viability assay (Cell Titer Glo); type: cell-based; details: cell viability, Cell Titer Glo, 48 hours, read-out: MOLM14 D835Y IC50
Procedure: Both cell lines have activated FLT3 receptors, each of which carry additional resistance mutations in the kinase domain (D835Y and F691L, respectively).
For viability/cytotoxicity assessments, cells were seeded into 1536-well white polystyrene tissue culture-treated Greiner plates using a Multidrop Combi dispenser (ThermoFisher), in final volume 5 μL of growth media per well, at a density of 1000 cells per well. […] Plates were incubated for 48 hours at standard incubator conditions covered by a stainless steel gasketed lid to prevent evaporation. 48 hours post compound addition, 3 μL of Cell Titer Glo (Promega) were added to each well and plates were incubated at room temperature for 15 minutes with the stainless-steel lid in place. Luminescence readings were taken using a Viewlux imager (PerkinElmer) with a 2 second exposure time per plate.

IRAK1 = target: T2, IRAK1 (Homo sapiens, UniProt P51617); assay: RBC HotSpot Kinase Assay, IRAK1; type: biochemical; details: isolated kinase enzyme, 33P-ATP, P81 filter-binding
T2 construct: purchased Reaction Biology (RBC HotSpot)
Excerpt: as §1, §2

IRAK4 = target: T3, IRAK4 (Homo sapiens, UniProt Q9NWZ3); assay: RBC HotSpot Kinase Assay, IRAK4; type: biochemical; set-up: purchased Reaction Biology (RBC HotSpot); details: isolated kinase enzyme, 33P-ATP, P81 filter-binding
T3 sequence (Q9NWZ3 1-460): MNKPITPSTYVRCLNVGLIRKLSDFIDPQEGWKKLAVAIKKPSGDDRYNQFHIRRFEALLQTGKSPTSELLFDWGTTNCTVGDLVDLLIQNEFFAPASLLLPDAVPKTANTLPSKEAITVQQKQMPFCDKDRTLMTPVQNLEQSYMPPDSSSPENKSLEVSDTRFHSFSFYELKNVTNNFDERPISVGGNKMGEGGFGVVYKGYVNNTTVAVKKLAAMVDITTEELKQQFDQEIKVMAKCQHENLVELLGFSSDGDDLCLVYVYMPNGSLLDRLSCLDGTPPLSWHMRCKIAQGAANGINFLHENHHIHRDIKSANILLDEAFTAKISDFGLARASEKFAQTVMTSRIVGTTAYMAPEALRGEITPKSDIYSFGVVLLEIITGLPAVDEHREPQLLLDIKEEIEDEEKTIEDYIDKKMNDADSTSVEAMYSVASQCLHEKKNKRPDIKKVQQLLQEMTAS
Excerpt: as §1, with “enzyme. This assay is very useful for determining competition of the inhibitor for ATP and/or substrates and for measuring the kinetics of enzyme inhibition.” for “enzyme.”
as §2
The reaction procedure was as follows: • 1) Substrates were prepared in freshly prepared Reaction Buffer. • 2) Any required cofactors were delivered to the substrate solution above. • 3) Kinase was delivered into the substrate solution and gently mixed. • 4) Compounds were delivered in 1000A DM into the kinase reaction mixture by Acoustic technology (Echo550; nanoliter range), followed by incubation for 20 min at room temp. • 5) 33P-ATP was delivered into the reaction mixture to initiate the reaction. • 6) The mixture was incubated for 2 hours at room temperature. • 7) Kinase activity was detected by P81 filter-binding method.

T2 sequence (P51617 whole entry): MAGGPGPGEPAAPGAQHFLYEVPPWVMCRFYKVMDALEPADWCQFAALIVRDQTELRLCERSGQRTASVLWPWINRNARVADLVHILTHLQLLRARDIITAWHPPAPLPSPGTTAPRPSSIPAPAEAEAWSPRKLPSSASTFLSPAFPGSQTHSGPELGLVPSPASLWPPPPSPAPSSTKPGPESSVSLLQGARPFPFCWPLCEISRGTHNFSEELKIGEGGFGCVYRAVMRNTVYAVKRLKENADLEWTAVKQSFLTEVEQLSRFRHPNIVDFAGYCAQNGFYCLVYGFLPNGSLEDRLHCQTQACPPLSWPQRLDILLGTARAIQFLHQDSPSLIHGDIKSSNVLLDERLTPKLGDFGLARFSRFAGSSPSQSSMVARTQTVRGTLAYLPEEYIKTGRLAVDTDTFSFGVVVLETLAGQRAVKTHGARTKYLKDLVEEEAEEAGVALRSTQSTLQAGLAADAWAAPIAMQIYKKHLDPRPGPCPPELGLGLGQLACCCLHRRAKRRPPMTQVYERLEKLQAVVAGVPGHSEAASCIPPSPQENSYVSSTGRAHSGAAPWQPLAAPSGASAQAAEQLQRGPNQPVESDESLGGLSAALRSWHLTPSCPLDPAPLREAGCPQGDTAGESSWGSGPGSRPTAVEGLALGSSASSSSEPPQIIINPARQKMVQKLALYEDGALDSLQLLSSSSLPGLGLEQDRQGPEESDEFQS

SMILES | IC50 (FLT3) [nM] | IC50 (MOLM14 D835Y cells; Homo sapiens, MOLM-14, 48 h) [nM] | IC50 (IRAK1) [nM] | IC50 (IRAK4) [nM] | IC50 (MOLM14 D835Y cells) [nM]
F[C@H]1CNC[C@@H]1Nc1nccc(-c2cnc3cc(OC4CC4)c(C4CC4)nn23)n1 [Compound 10a, 4-(7-cyclopropoxy-6-cyclopropylimidazo[1,2-b]pyridazin-3-yl)-N-((3S,4S)-4-fluoropyrrolidin-3-yl)pyrimidin-2-amine] | < 0.5 | 91 | 26 | 3 | 
COc1cc2ncc(-c3ccnc(N[C@H]4CNCC[C@@H]4F)n3)n2nc1C(C)(C)O [Compound 40a, 2-(3-(2-(((3S,4S)-4-fluoropiperidin-3-yl)amino)pyrimidin-4-yl)-7-methoxyimidazo[1,2-b]pyridazin-6-yl)propan-2-ol] | 3 | 115 | 1130 | 76 | 
CC(O)(c1ccc2ncc(-c3nc(N[C@H]4CNC[C@@H]4F)ncc3F)n2c1)C(F)(F)F (single isomer, unassigned) [Compound 38a] | < 0.5 |  | 1 | 0.6 | 51
COc1cc2ncc(-c3ccnc(N[C@@H]4CCCNC4)n3)n2nc1C(C)(C)O [Compound 42a, (R)-2-(7-methoxy-3-(2-(piperidin-3-ylamino)pyrimidin-4-yl)imidazo[1,2-b]pyridazin-6-yl)propan-2-ol] | 10 | 363 | 3250 | 496 | 
COc1cc2ncc(-c3ccnc(N[C@H]4CNC[C@@H]4F)n3)n2nc1C1CC(F)(F)C1 [Compound 20a, 4-(6-(3,3-difluorocyclobutyl)-7-methoxyimidazo[1,2-b]pyridazin-3-yl)-N-((3S,4S)-4-fluoropyrrolidin-3-yl)pyrimidin-2-amine] | 0.7 | 182 | 170 | 12 | 
CC(C)(O)c1ccc2ncc(-c3nc(N[C@H]4CNC[C@@H]4F)ncc3F)n2c1 [Compound 47a, 2-(3-(5-fluoro-2-(((3S,4S)-4-fluoropyrrolidin-3-yl)amino)pyrimidin-4-yl)imidazo[1,2-a]pyridin-6-yl)propan-2-ol] | < 0.5 | 46 | 13 | 1 | 
CC(O)(c1ccc2ncc(-c3nc(N[C@H]4CNC[C@@H]4F)ncc3F)n2c1)C(F)(F)F (single isomer, unassigned) [Compound 36a] | < 0.5 | 41 | 4 | 2 | 
COc1cc2ncc(-c3ccnc(N[C@H]4CNC[C@@H]4F)n3)n2nc1C(C)(C)O [Compound 41a, 2-(3-(2-(((3S,4S)-4-fluoropyrrolidin-3-yl)amino)pyrimidin-4-yl)-7-methoxyimidazo[1,2-b]pyridazin-6-yl)propan-2-ol] | 1 | 289 | 1590 | 36 | 
FC(F)COc1cc2ncc(-c3cncc(N[C@@H]4CCCNC4)n3)n2nc1C1CC1 [Compound 9a, (R)-6-(6-cyclopropyl-7-(2,2-difluoroethoxy)imidazo[1,2-b]pyridazin-3-yl)-N-(piperidin-3-yl)pyrazin-2-amine] | < 0.5 | 41 | 199 | 11 | 
CC(O)(c1ccc2ncc(-c3cncc(N[C@H]4CNC[C@@H]4F)n3)n2c1)C(F)(F)F (single isomer, unassigned) [Compound 30a] | 2 | 576 | 108 | 5 | 
COc1cc2ncc(-c3ccnc(N[C@@H]4CCCNC4)n3)n2nc1C1CC(F)(F)C1 [Compound 21a, (R)-4-(6-(3,3-difluorocyclobutyl)-7-methoxyimidazo[1,2-b]pyridazin-3-yl)-N-(piperidin-3-yl)pyrimidin-2-amine] | < 0.5 | 102 | 236 | 81 | 
CC(O)(c1ccc2ncc(-c3cncc(N[C@H]4CNCC[C@@H]4F)n3)n2c1)C(F)(F)F (single isomer, unassigned) [Compound 33a] | 0.7 |  | 9 | 0.8 | 65
COc1cc2ncc(-c3nc(N[C@H]4CNC[C@@H]4F)ncc3F)n2nc1C(C)(C)O [Compound 44a, 2-(3-(5-fluoro-2-(((3S,4S)-4-fluoropyrrolidin-3-yl)amino)pyrimidin-4-yl)-7-methoxyimidazo[1,2-b]pyridazin-6-yl)propan-2-ol] | < 0.5 | 51 | 32 | 4 | 
CC(O)(c1ccc2ncc(-c3ccnc(N[C@H]4CNC[C@@H]4F)n3)n2c1)C(F)(F)F (single isomer, unassigned) [Compound 26a] | < 0.5 |  | 5 | < 0.5 | 23
CC(O)(c1ccc2ncc(-c3cncc(N[C@H]4CNC[C@@H]4F)n3)n2c1)C(F)(F)F (single isomer, unassigned) [Compound 32a] | 2 |  | 53 | 1 | 408
COc1cc2ncc(-c3ccnc(N[C@@H]4CCCNC4)n3)n2nc1N1CC(F)(F)C1 [Compound 17a, (R)-4-(6-(3,3-difluoroazetidin-1-yl)-7-methoxyimidazo[1,2-b]pyridazin-3-yl)-N-(piperidin-3-yl)pyrimidin-2-amine] | 4 | 182 | 1420 | 215 | 
FC(F)COc1cc2ncc(-c3cncc(N[C@H]4CNC[C@@H]4F)n3)n2nc1C1CC1 [Compound 8a, 6-(6-cyclopropyl-7-(2,2-difluoroethoxy)imidazo[1,2-b]pyridazin-3-yl)-N-((3S,4S)-4-fluoropyrrolidin-3-yl)pyrazin-2-amine] | < 0.5 | 91 | 34 | 2 | 

Source: patent publication US20260226048A1, “MULTI-CYCLIC IRAK AND FLT3 INHIBITING COMPOUNDS AND USES THEREOF” (CHILDREN'S HOSPITAL MEDICAL CENTER, priority 2023, published 2026)
